Experimental data taken from ChEMBL document CHEMBL1201862, “PubChem BioAssay data set” (2004).
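Test compounds were applied to cells in 96-well plates for 48 hours at 5 doses. GI50: concentration for 50% inhibition of growth.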 Activity calls are given as the source filed them. Cut-off read from the data, not from the text of the source: active = GI50 up to about 1.1 µM and inactive = higher. Non-standard residues stand in square brackets, D forms with d. Residues, ends and D or L forms follow the SMILES beside them. *: point of attachment. hSer = N[CH](CCO)C(=O)O; Boc = CC(C)(C)OC(=O)*

Key:
Assay in all cases: growth of human tumour cells (NCI), 48 h
OVCAR-4 = test system: OVCAR-4
HOP-92 = test system: HOP-92
OVCAR-5 = test system: OVCAR-5
TK-10 = test system: TK-10
SK-MEL-2 = test system: SK-MEL-2
HCT-116 = test system: HCT-116
HT-29 = test system: HT-29
LOX IMVI = test system: LOX IMVI
MCF7 = test system: MCF7
SNB-19 = test system: SNB-19
HOP-62 = test system: HOP-62
U-251 = test system: U-251
NCI/ADR-RES = test system: NCI/ADR-RES
HCT-15 = test system: HCT-15
KM12 = test system: KM12
ACHN = test system: ACHN
SF-539 = test system: SF-539
EKVX = test system: EKVX
OVCAR-3 = test system: OVCAR-3
IGROV-1 = test system: IGROV-1

SMILES | GI50 (OVCAR-4) | GI50 (HOP-92) | GI50 (OVCAR-5) | GI50 (TK-10) | GI50 (SK-MEL-2) | GI50 (HCT-116) | GI50 (HT-29) | GI50 (LOX IMVI) | GI50 (MCF7) | GI50 (SNB-19) | GI50 (HOP-62) | GI50 (U-251) | GI50 (NCI/ADR-RES) | GI50 (HCT-15) [µM] | GI50 (KM12) | GI50 (ACHN) | GI50 (SF-539) | GI50 (EKVX) | GI50 (OVCAR-3) | GI50 (IGROV-1)
c1cc(-c2ccc(-c3ccc(C4=NC5CCCCC5N4)cc3)o2)ccc1C1=NC2CCCCC2N1 (configuration not stated) | 1.56 µM (inactive) | 1.43 µM (inactive) | 2.09 µM (inactive) | 5.19 µM (inactive) | 1.82 µM (inactive) | 1.51 µM (inactive) | 1.39 µM (inactive) | 1.56 µM (inactive) | 1.21 µM (inactive) | 1.47 µM (inactive) | 1.5 µM (inactive) | 1.44 µM (inactive) | 28.4 µM (inactive) | 5.19 | 1.46 µM (inactive) | 2.36 µM (inactive) | 1.73 µM (inactive) | 1.69 µM (inactive) | 1.85 µM (inactive) | 
COC1=CC(=O)O/C1=C(\OC)C1OC1c1ccccc1 (configuration not stated) | > 100 µM (inactive) | > 100 µM (inactive) | > 100 µM (inactive) | > 100 µM (inactive) | > 100 µM (inactive) | > 100 µM (inactive) | > 100 µM (inactive) | > 100 µM (inactive) | > 100 µM (inactive) | > 100 µM (inactive) | > 100 µM (inactive) | > 100 µM (inactive) | > 100 µM (inactive) | > 100 | > 100 µM (inactive) | > 100 µM (inactive) | > 100 µM (inactive) | > 100 µM (inactive) | > 100 µM (inactive) | > 100 µM (inactive)
N#C[C@H]1Nc2ccccc2[C@@H](O)C1O (some centres not stated) | > 100 µM (inactive) | > 100 µM (inactive) | > 100 µM (inactive) | > 100 µM (inactive) | > 100 µM (inactive) | > 100 µM (inactive) | > 100 µM (inactive) | > 100 µM (inactive) | > 100 µM (inactive) |  | > 100 µM (inactive) | > 100 µM (inactive) | > 100 µM (inactive) | > 100 | > 100 µM (inactive) | > 100 µM (inactive) | > 100 µM (inactive) | > 100 µM (inactive) | > 100 µM (inactive) | > 100 µM (inactive)
COCCC(NC(=O)C(CC(C)C)NC(=O)OC(C)(C)C)C(N)=O (stereo not drawn) (Boc-Leu-[hSer](Me)-NH2; configuration not given here) | > 100 µM (inactive) | > 100 µM (inactive) |  | > 100 µM (inactive) | > 100 µM (inactive) | > 100 µM (inactive) | > 100 µM (inactive) | > 100 µM (inactive) | > 100 µM (inactive) | > 100 µM (inactive) | > 100 µM (inactive) | > 100 µM (inactive) | > 100 µM (inactive) | > 100 | > 100 µM (inactive) | > 100 µM (inactive) | > 100 µM (inactive) | > 100 µM (inactive) | > 100 µM (inactive) | > 100 µM (inactive)
